# Paper PMC9560627, “Targeting Echinococcus multilocularis PIM kinase for improving anti-parasitic chemotherapy” (PLoS Neglected Tropical Diseases, 2022)
# Like-named read-outs stand apart in the source and are kept apart here.
# Experiments:
# [1] = tested on: E. multilocularis MV; assay: Mature metacestode vesicle (MV) assay, structural integrity by microscopy; type: cell-based, Echinococcus multilocularis; settings: for structural vesicle damage of MV (screen of 20 in silico compounds): 3 and 10 μM
# Experimental: In mature MV assays, 10 individual MV each were cultured in 2 ml of conditioned medium (100% A6 medium) in the presence of inhibitors in 12 well plates under axenic conditions for 28 d as described in [39]. […] Structural integrity of MV was assessed using an optical microscope (Nikon eclipse Ts2-FL). Experimental set-up and execution of inhibitor studies and structural integrity assessment was performed by independent experimenters. Criteria for intact or damaged vesicles were essentially as previously described. All experiments were performed using 3 biological replicates. Percentages of structurally intact vesicles were statistically analyzed with one-way ANOVA with Dunnet’s multiple comparison tests in Graphpad prism 9.3.1(Graphpad software).
# [2] = tested on: E. multilocularis; parameters: method as in PMID 26389799; settings: cited from earlier work
# [3] = tested on: E. multilocularis PC; assay: Vesicle formation assay (MV formation from PC); type: cell-based, Echinococcus multilocularis
# Experimental: In vesicle formation assays, PC were isolated as described above and 100 U of isolated PC (~1.5×10^4 cells/well) were seeded in 96 well plates with 200 μl of conditioned medium (50% A6 medium + 50% B4 medium) for 21 d under nitrogen atmosphere. The number of newly formed vesicles was counted using an optical microscope (Nikon eclipse Ts2-FL) essentially as previously described. Kruskal-Wallis test followed by Dunn’s multiple comparisons test was used in GraphPad Prism version 9.3.1(Graphpad software) to analyze the difference of vesicle numbers in control and treatment groups. In this analysis, all concentrations were compared with the negative control DMSO. Experiments with SGI-1776 and CX-6258 were performed in three biological and technical replicates. Experiments with SGI-1776 and Z196138710 were performed in three technical replicates.
# [4] = tested on: HEK293T cells; assay: Mammalian cell toxicity, Cell Titer Glo 2.0 viability; type: cell-based, human; settings: for IC50: read-out: IC50 against HEK293T cells
# Experimental: (§1) The toxicity of inhibitors against mammalian cells was evaluated by treatment of the commonly used cell lines HEK293T [42] and HepG2 [43], which were cultivated and passaged as described in [43, 44]. […] 24 h after seeding, 50 μl of DMEM+GlutaMAX-I including FBS and inhibitors were added. Final concentrations of inhibitors were adjusted to 0–30 μM as indicated, DMSO alone was used as a control. Plates were incubated for 3 d under aerobic conditions and cell viability was measured using the Cell Titer Glo 2.0 system (Promega) according to the manufacturer’s instructions. Luminescence was measured by a Spectramax iD3 Multi-mode Microplate reader (Molecular Devices). Three independent experiments with three technical replicates were carried out for both cell lines. Luminescence units were normalized to the DMSO control of each independent experiment and expressed as percentage of luminescence unit. One-Way-ANOVA test followed by Tukey’s multiple comparisons test was used in GraphPad Prism version 9.3.1 (Graphpad software) for statistical analysis. Based on the cell viability data, dose-response curves were drawn and IC50 (best fit value) were calculated using GraphPad Prism version 9.3.1 (Graphpad software).
# [5] = tested on: HepG2 cells; assay: as above; type: cell-based, human; settings: for IC50: read-out: IC50 against HepG2 cells
# Experimental: as §1
# [6] = tested on: E. multilocularis PC; assay: Cell viability assay (Cell Titer Glo 2.0) on E. multilocularis primary cell cultures (PC), initial kinase inhibitor screen; type: cell-based, Echinococcus multilocularis; settings: for inhibition at 10 µM: Echinococcus multilocularis, read-out: growth inhibition of Echinococcus PC
# [7] = tested on: human Pim-1; settings: cited from earlier work
# [8] = tested on: human Pim-2; settings: cited from earlier work
# [9] = tested on: human Pim-3; settings: cited from earlier work
# [10] = tested on: FLT3; settings: cited from earlier work
# [11] = tested on: haspin; settings: cited from earlier work
# [12] = tested on: a broad variety of other cell types, including chronic lymphocytic leukemia cells; parameters: method as in PMID 22052829, PMID 19734450; settings: read-out: in vitro IC50 against a broad variety of other cell types; cited from earlier work
# [13] = cited from earlier work
# [14] = tested on: solid tumour xenografts; parameters: method as in PMID 22052829, PMID 25589932; settings: mice, plasma concentrations around 3 μM free compound; cited from earlier work
# [15] = parameters: method as in PMID 30370255; settings: non-Hodgkin lymphoma and prostate cancer; cited from earlier work
# [16] = tested on: human Ether-á-go-go-related (hERG) cardiac ion channel; settings: cited from earlier work
# [17] = tested on: Echinococcus; settings: ref PMID:9593125; cited from earlier work
# [18] = response to reviewers, ref literature, not numbered at the place
compound,measurement,setting,value
CN(C)C(=O)CN1CCN(Cc2nc3scc(-c4ccccc4Cl)c3c(=O)[nH]2)CC1 [Z65225039],structural vesicle damage of MV (screen of 20 in silico compounds),[1]; 28 d,highly effective in inducing structural vesicle damage
CCCSc1ccc2nc(NC(=O)OC)[nH]c2c1 [albendazole],efficacy against the parasite in AE patients,[2],effective against the parasite in only one third of cases
"COc1cc(CNc2ncnc3ccsc23)ccc1OC(F)F [Z196138710, N-(4-(difluoromethoxy)-3-methoxybenzyl)-thieno-[3,2-d]-pyrimidin-4-amine]","concentration effective against the parasite, mature MV",[1],10 µM
same,structural disintegration of MV,"[1]; 10 μM, 28 d",100%
same,structural vesicle damage of MV (screen of 20 in silico compounds),[1]; 28 d,highly effective in inducing structural vesicle damage
same,"concentration effective against the parasite, stem cell cultures",[3],3 µM
same,MV formation from stem cells (PC),"[3]; 10 μM, 21 d",completely prevented MV formation
same,"MV development from primary cells, comparison with SGI-1776","[3]; different concentrations, 21 d",effects similar to those of SGI-1776
same,inhibition of HEK293T cells,"[4]; 30 and 10 μM, 3 d",40–60%
same,IC50,"[4]; Homo sapiens, HEK-293T, 72 h, 3 d, cell viability",11 µM
same,inhibition of HepG2 cells,"[5]; 30 and 10 μM, 3 d",40–60%
same,IC50,"[5]; Homo sapiens, HepG2, 72 h, 3 d, cell viability",16 µM
CN1CCC(CNc2ccc3ncc(-c4cccc(OC(F)(F)F)c4)n3n2)CC1 [SGI-1776],inhibition at 10 µM,[6]; 72 h,~60%
same,inhibition at 10 µM,[6]; 168 h,~80%
same,effect on structural integrity of mature MV,"[1]; 3 μM, 28 d",did not lead to statistically significant effects
same,effect on structural integrity of mature MV,"[1]; 10 μM, 28 d",almost all
same,MV formation from stem cells (PC),"[3]; 3 μM, 21 d",did not lead to statistically significant effects
same,MV formation from stem cells (PC),"[3]; 10 μM, 21 d",almost completely
same,MV formation from stem cells (PC),"[3]; 30 μM, 21 d",completely prevented
same,effect on HEK293T cells,"[4]; 30 and 10 μM, 3 d",fully eliminated
same,IC50,"[4]; Homo sapiens, HEK-293T, 72 h",~1 µM
same,effect on HepG2 cells,"[5]; 30 and 10 μM, 3 d",fully eliminated
same,IC50,"[5]; Homo sapiens, HepG2, 72 h",~1 µM
same,IC50,[8]; read-out: IC50 against human Pim-2,0.363 µM
same,IC50,[9]; read-out: IC50 against human Pim-3,0.069 µM
same,IC50,[10]; read-out: IC50 against FLT3,0.044 µM
same,IC50,[11]; read-out: IC50 against haspin,0.034 µM
same,IC50,[12],~3 µM
same,compound bound to plasma proteins,[13]; in vivo application in mice,around 95%
same,well tolerated plasma concentration of free compound (not bound to plasma proteins),[13]; mice,around 3 μM
same,drug bound to human plasma protein,[13]; [18],about 95%
same,efficacy against solid tumour xenografts,[14],effective against solid tumour xenografts in mice
same,toxicity in clinical phase I trials,[15],toxicity in cardiac electric cycle prolongation
same,cause of toxicity in clinical trials: hERG,[16],off-target effects
CCC1CN(Cc2nc3cc(OC)c(OC)cc3c(=O)[nH]2)CCO1 (stereo not drawn) [Z354576500],structural vesicle damage of MV (screen of 20 in silico compounds),[1]; 28 d,highly effective in inducing structural vesicle damage
Cc1noc(C)c1COc1cccc(C(=O)N2CCC(C(N)=O)CC2)c1 [Z30898879],structural vesicle damage of MV (screen of 20 in silico compounds),[1]; 28 d,highly effective in inducing structural vesicle damage
COC(=O)Nc1nc2ccc(C(=O)c3ccccc3)cc2[nH]1 [mebendazole],efficacy against the parasite in AE patients,[2],effective against the parasite in only one third of cases
same,in vitro active concentrations,[17],1 to 10 µM
Cc1nc(Nc2ncc(C(=O)Nc3c(C)cccc3Cl)s2)cc(N2CCN(CCO)CC2)n1 [Dasatinib],effect on parasite PC proliferation,"[6]; 10 μM, 3 d and 7 d",stimulated parasite cell proliferation
CN1CCCN(C(=O)c2cccc(-c3ccc(/C=C4/C(=O)Nc5ccc(Cl)cc54)o3)c2)CC1 [CX-6258],effect on structural integrity of mature MV,"[1]; 3 μM, 28 d",did not lead to statistically significant effects
same,effect on structural integrity of mature MV,"[1]; 10 μM, 28 d",drastic loss of structural integrity of all
same,MV formation from stem cells (PC),"[3]; 3 μM, 21 d",drastically affected MV formation
same,MV formation from stem cells (PC),"[3]; concentrations higher than 3 μM, 21 d",completely inhibited MV development
same,effect on HEK293T cells,"[4]; 30 and 10 μM, 3 d",fully eliminated
same,IC50,"[4]; 3 d, cell viability",~1 µM
same,effect on HepG2 cells,"[5]; 30 and 10 μM, 3 d",fully eliminated
same,IC50,"[5]; 3 d, cell viability",~1 µM
same,IC50,[8]; read-out: IC50 Pim-2,0.025 µM
same,IC50,[9]; read-out: IC50 Pim-3,0.016 µM
same,IC50,[10]; read-out: IC50 FLT3,0.134 µM
same,activity against haspin kinase,[11]; melanoma cell lines,much higher IC50 values than against Pim-1 and Pim-3
